Test results reported in patent US9061984B2 (University of Louisville Research Foundation, Inc., priority 2008, dated 2015).
Like-named read-outs stand apart in the source and are kept apart here.

Tested on: several cell lines (Panel/Cell Line)
Assay: GI50, TGI and LC50 of compound II-21 for several cell lines (Table 12)
Settings: 48-h exposure; for GI50 / CC50: Homo sapiens

In the case of `C(=N/Nc1ncnc2sc3c(c12)CCCC3)/c1ccccn1` [II-21], the GI50 (NCI-H522, 48 h, Non-Small Cell Lung Cancer, NCI-H522) is reported as 0.419 µM, the CC50 (NCI-H522, 48 h, read-out: LC50 (M), Non-Small Cell Lung Cancer, NCI-H522) is reported as > 0.0001 M and the GI50 (NCI/ADR-RES, 48 h, Ovarian Cancer) is reported as 0.427 µM. The CC50 (NCI/ADR-RES, 48 h, read-out: LC50 (M), Ovarian Cancer, NCI/ADR-RES) was > 0.0001 M, the GI50 (OVCAR-3, 48 h, Ovarian Cancer, OVCAR-3) was 0.109 µM and the CC50 (OVCAR-3, 48 h, read-out: LC50 (M), Ovarian Cancer, OVCAR-3) was 4.39e-05 M. The GI50 (OVCAR-4, 48 h, Ovarian Cancer, OVCAR-4) was 0.431 µM, the CC50 (OVCAR-4, 48 h, read-out: LC50 (M), Ovarian Cancer, OVCAR-4) was > 0.0001 M and the GI50 (OVCAR-5, 48 h, Ovarian Cancer, OVCAR-5) was 0.823 µM. For the same compound, the CC50 (OVCAR-5, 48 h, read-out: LC50 (M), Ovarian Cancer, OVCAR-5) was > 0.0001 M, the GI50 (OVCAR-8, 48 h, Ovarian Cancer, OVCAR-8) was 0.481 µM and the CC50 (OVCAR-8, 48 h, read-out: LC50 (M), Ovarian Cancer, OVCAR-8) was > 0.0001 M. The GI50 (RPMI-8226, 48 h, Leukemia, RPMI-8226) was 0.35 µM, the CC50 (RPMI-8226, 48 h, read-out: LC50 (M), Leukemia, RPMI-8226) was > 0.0001 M and the GI50 (RXF 393, 48 h, Renal Cancer, RXF 393) was 0.423 µM. It also gave a CC50 (RXF 393, 48 h, read-out: LC50 (M), Renal Cancer, RXF 393) of 4.53e-05 M, a GI50 (SF-268, 48 h, CNS Cancer, SF-268) of 0.356 µM and a CC50 (SF-268, 48 h, read-out: LC50 (M), CNS Cancer, SF-268) of 8.3e-05 M. For the same compound, the GI50 (SF-295, 48 h, CNS Cancer, SF-295) was 0.313 µM, the CC50 (SF-295, 48 h, read-out: LC50 (M), CNS Cancer, SF-295) was > 0.0001 M and the GI50 (SF-539, 48 h, CNS Cancer, SF-539) was 0.391 µM. The CC50 (SF-539, 48 h, read-out: LC50 (M), CNS Cancer, SF-539) was 2.92e-05 M, the GI50 (SK-MEL-2, 48 h, Melanoma, SK-MEL-2) was 7.51 µM and the CC50 (SK-MEL-2, 48 h, read-out: LC50 (M), Melanoma, SK-MEL-2) was 6.78e-05 M. The GI50 (SK-MEL-5, 48 h, Melanoma, SK-MEL-5) was 0.332 µM, the CC50 (SK-MEL-5, 48 h, read-out: LC50 (M), Melanoma, SK-MEL-5) was 2.36e-05 M and the GI50 (SK-MEL-28, 48 h, Melanoma, SK-MEL-28) was 0.422 µM. For the same compound, the CC50 (SK-MEL-28, 48 h, read-out: LC50 (M), Melanoma, SK-MEL-28) was 5.46e-05 M, the GI50 (SK-OV-3, 48 h, Ovarian Cancer, SK-OV-3) was 0.41 µM and the CC50 (SK-OV-3, 48 h, read-out: LC50 (M), Ovarian Cancer, SK-OV-3) was > 0.0001 M. For the same compound, the GI50 (SN12C, 48 h, Renal Cancer) was 0.426 µM, the CC50 (SN12C, 48 h, read-out: LC50 (M), Renal Cancer, SN12C) was 8.1e-05 M and the GI50 (SNB-19, 48 h, CNS Cancer, SNB-19) was 0.767 µM. The CC50 (SNB-19, 48 h, read-out: LC50 (M), CNS Cancer, SNB-19) was > 0.0001 M, the GI50 (SNB-75, 48 h, CNS Cancer, SNB-75) was 0.585 µM and the CC50 (SNB-75, 48 h, read-out: LC50 (M), CNS Cancer, SNB-75) was 4.93e-05 M. The GI50 (SW-620, 48 h, Colon Cancer, SW-620) was 0.561 µM, the CC50 (SW-620, 48 h, read-out: LC50 (M), Colon Cancer, SW-620) was 5.95e-05 M and the GI50 (T47D, 48 h, Breast Cancer, T-47D) was 0.0764 µM. The CC50 (T47D, 48 h, read-out: LC50 (M), Breast Cancer, T-47D) was > 0.0001 M, the GI50 (TK-10, 48 h, Renal Cancer, TK-10) was 0.486 µM and the CC50 (TK-10, 48 h, read-out: LC50 (M), Renal Cancer, TK-10) was > 0.0001 M. For the same compound, the GI50 (U-251, 48 h, CNS Cancer, U251) was 0.369 µM, the CC50 (U-251, 48 h, read-out: LC50 (M), CNS Cancer, U251) was 3.48e-05 M and the GI50 (UACC-62, 48 h, Melanoma, UACC-62) was 0.379 µM. For the same compound, the CC50 (UACC-62, 48 h, read-out: LC50 (M), Melanoma, UACC-62) was 4.84e-05 M, the GI50 (UACC-257, 48 h, Melanoma, UACC-257) was 0.355 µM and the CC50 (UACC-257, 48 h, read-out: LC50 (M), Melanoma, UACC-257) was 4.17e-05 M. The GI50 (UO-31, 48 h, Renal Cancer, UO-31) was 0.286 µM, the CC50 (UO-31, 48 h, read-out: LC50 (M), Renal Cancer, UO-31) was 6.3e-05 M and the “TGI” value (Leukemia, CCRF-CEM) was 0.769 µM. For the same compound, the “TGI” value (Leukemia, HL-60(TB)) was 0.407 µM, the “TGI” value (Leukemia, K-562) was 10.8 µM and the “TGI” value (Leukemia, MOLT-4) was 0.774 µM. The “TGI” value (Leukemia, RPMI-8226) was 12.5 µM, the “TGI” value (Leukemia, SR) was 0.953 µM and the “TGI” value (Melanoma, M14) was 0.599 µM. For the same compound, the “TGI” value (Melanoma, MALME-3M) was 10.3 µM, the “TGI” value (Melanoma, MDA-MB-435) was 25.1 µM and the “TGI” value (Melanoma, SK-MEL-2) was 25.5 µM. The “TGI” value (Melanoma, SK-MEL-5) was 1.72 µM, the “TGI” value (Melanoma, SK-MEL-28) was 16.7 µM and the “TGI” value (Melanoma, UACC-62) was 6.54 µM. For the same compound, the “TGI” value (Non-Small Cell Lung Cancer, A549/ATCC) was 14.9 µM, the “TGI” value (Non-Small Cell Lung Cancer, EKVX) was 20.5 µM and the “TGI” value (Non-Small Cell Lung Cancer, HOP-62) was 17.7 µM. The “TGI” value (Non-Small Cell Lung Cancer, HOP-92) was 31 µM, the “TGI” value (Non-Small Cell Lung Cancer, NCI-H23) was 34.3 µM and the “TGI” value (Non-Small Cell Lung Cancer, NCI-H226) was 16.2 µM. The “TGI” value (Non-Small Cell Lung Cancer, NCI-H322M) was 35 µM, the “TGI” value (Non-Small Cell Lung Cancer, NCI-H460) was 1.73 µM and the “TGI” value (Non-Small Cell Lung Cancer, NCI-H522) was 23.2 µM. The “TGI” value (Ovarian Cancer, IGROV1) was 28.9 µM, the “TGI” value (Ovarian Cancer, NCI/ADR-RES) was 58.1 µM and the “TGI” value (Ovarian Cancer, OVCAR-3) was 14.5 µM. For the same compound, the “TGI” value (Ovarian Cancer, OVCAR-4) was 26.3 µM, the “TGI” value (Ovarian Cancer, OVCAR-5) was 31.4 µM and the “TGI” value (Ovarian Cancer, OVCAR-8) was >100 µM. The “TGI” value (Ovarian Cancer, SK-OV-3) was 29.2 µM, the “TGI” value (Prostate Cancer, DU-145) was 15.1 µM and the “TGI” value (Prostate Cancer, PC-3) was 71.1 µM. The “TGI” value (Renal Cancer, 786-0) was 0.947 µM, the “TGI” value (Renal Cancer, A498) was 8.81 µM and the “TGI” value (Renal Cancer, ACHN) was 11 µM. For the same compound, the “TGI” value (Renal Cancer, CAKI-1) was 14.8 µM, the “TGI” value (Renal Cancer, RXF 393) was 10.6 µM and the “TGI” value (Renal Cancer, SN12C) was 15.3 µM. For the same compound, the “TGI” value (Renal Cancer, TK-10) was 56.6 µM and the “TGI” value (Renal Cancer, UO-31) was 1.65 µM.
